This is an account of results in US20240082118A1, “TOPICAL COMPOSITIONS AND METHODS OF PREPARING THE SAME” (LANDA LABS (2012) LTD., priority 2021, published 2024).

The test system of the data set is skin of pigs' ears. As to the kind of experiment: Ex vivo penetration of fluorescently marked nano-elements into pig ear skin. The format is in vitro ADME. As to conditions: marker in water, or in water with the surfactants of Composition 2.21. How it is done: The distribution of nano-elements of the present compositions in various skin layers was tested ex vivo by applying onto the skin of pigs' ears nano-elements including a fluorescent dye (Nile red) allowing histological monitoring of their presence within the layers of the tissue onto which they were applied.
Tested composition (2) was prepared by adding 2 mg of Nile red fluorescent marker during the preparation of the CSSC premix, as described in Example 2.
The compositions were tested on two freshly harvested pig ears, collected on the same day, and kept fresh and cooled till use. The ears were washed with excess saline solution and wiped dry. They were then immobilized for the duration of the study by taping them onto a glass surface, their inner side facing down. Each ear was marked on its outer side with 6 circles having a diameter of about 1 cm.
25 microliters of each one of the samples were applied onto the skin near the center of the marked circle, each tested composition being applied in two or more separate circles for repeats. The ears with the applied test samples were then placed in an oven for an incubation time of 20 hours at a temperature of 32° C., to simulate the pigs' body temperature. […]
The tissue sections were evaluated by an expert for the presence and intensity of the marker using a fluorescence microscope at objective magnification of ×10. […]

As for `CCN(CC)c1ccc2nc3c4ccccc4c(=O)cc-3oc2c1` [Nile red, 9-(diethylamino)-5H-benzo[a]phenoxazin-5-one], the “penetration of the fluorescent marker into skin without nano-elements” value was “No penetration”.
